Measurements published in patent publication US5278181A, “Soluble alkyl[5-[amino (phenyl)methyl]-1H-benzimidazol-2-yl] carbamate anthelmintics” (priority 1992, dated 1994).
In brackets after ≈: the same amount, converted by molar mass. Several values for one entry are separate records, joined by “and”; a condition that tells them apart may be missing. Equal entries are not always repeated.

Experiments:
Brugia pahangi [1] = test: Antifilarial effect in beagle dogs infected with Brugia pahangi; assay type: in vivo
Description: The infective larvae of B. pahangi were produced and collected as described by McCall [J. Georgia Entomol. Soc. 16:283-293, (1981)]. The dogs were given 100 L3 of B. pahangi by subcutaneous injection (SC) into the dorsum of each hind paw or 200 L3 in one hind paw (i.e., a total inoculum of 200 L3 per dog).
The dogs were randomly allocated to treatment groups containing 4 dogs. The dogs were divided by sex and ranked by declining baseline microfilarial counts (average count based on the 5 bleedings made before the day of treatment). Those dogs which were amicrofilaremic or had very few microfilariae were excluded from the trial. Of the remaining dogs, those with the highest baseline microfilaremias were assigned to seven-dog replicates. The sex of the dogs within three of the replicates was the same, while the fourth replicate contained dogs of both sexes. The dogs of a given sex with the highest levels of microfilaremia were placed in the same replicate. The next set of dogs of that sex with the next highest levels of microfilaremia was assigned to the next replicate, and so on until all of the replicates were filled. The dogs within each complete replicate were assigned to test groups using a table of random numbers [Ostle and Mensing, Statistics in Research, Third Edition, Iowa State University Press, Ames, Iowa, pp. 560-563, (1975)]. The test groups were likewise assigned to either control or treatment groups using the table of random numbers.
The first day of treatment, day 0, was approximately 144 days after infection. Drugs were administered orally as a 10% suspension in HEC-Tween 80 or in soft gelatin capsules. Drugs were administered intramuscularly or subcutaneously as a 10% suspension in peanut oil or in HEC-Tween 80. Groups of four dogs served in sham-treated controls in each experiment. All of the treatments were given by IM injection in the dorsal lumbar muscles.
(§1) All dogs were observed frequently during each day of treatment and daily throughout the remainder of the study for any signs of reactions. In addition, the hair was shaved at the injection sites to facilitate the observation of possible tissue irritation resulting from treatment.
Blood was collected from each dog on days 51, 43, 27, 19, and 5 before treatment to determine baseline microfilaremias and allocate the dogs to treatment groups. Blood was then collected from all dogs on the day before treatment on day -1, on days 7, 10, 14, 21, 28, 35, 42, 49, and 56 days after treatment. All bleedings were done at approximately the same time of day (11:00-12:00 E.S.T.). Two 20-μl blood films were prepared from each sample and stained with giemsa. Microfilarial counts were made from the 2 blood films.
The dogs were euthanized for necropsy either two or six months after the first day of treatment. Just prior to euthanasia, the dogs were given a subcutaneous injection (SC) of a two percent solution of Evans blue into the dorsum of both hind paws in order to help delineate the lymphatic vessels. This was followed at least 30 minutes later with a lethal dose of Fatal-Plus® (Vortech Pharmaceuticals, Dearborn, Mich.). A limited necropsy was performed on each dog with examination of the afferent and efferent lymphatics of both hindlimbs and the popliteal, inguinal, internal and external iliac, and lumbar lymph nodes. Any live or dead worms seen were removed. These vessels and lymph nodes were removed, teased, and soaked overnight in normal saline to allow any worms to migrate out of the tissues. The condition of the worms, their sex and number, and the location from which they were recovered were noted.
Effectiveness against the adult parasites was determined as follows: [formula] Effectiveness against microfilariae for a given day after treatment was determined as follows: [formula]
The adult B. pahangi counts and the microfilarial counts were compared using a one way analysis of variance (ANOVA). […]

[2] = Local muscle irritation at injection site in beagle dogs; assay type: in vivo; conditions: IM, 12.5-50 mg/kg/day for 2 to 3 days
Description: as §1

Aqueous solubility = conditions: water
Brugia pahangi [3] = test: Antifilarial dual infection screen in jirds: adult B. pahangi burden; assay type: in vivo, in Mongolian jirds; conditions: SC, day 56
Description: (§2) Dual infections of the filarial worms Brugia pahangi and Acanthocheilonema viteae in jirds are used routinely for antifilarial screening [McCall, J. W., McTier, T. L., and Rowan, S. J., "In vivo models for evaluating potential antifilarial agents", Onchocerciasis/Filariasis (Proceedings of a Symposium sponsored by the World Health Organization), Kalamazoo, Mich., Apr. 8-10, 23-24 (1986)].
(§3) For this dual infection screen, male Mongolian jirds weighing 50-60 g are infected SC with 10 (5 male and 5 female) adult A. viteae, transplanted under sodium pentobarbital anesthesia (48 mg/kg) from donor hamsters infected SC 8 weeks earlier. Two weeks later, 20 (10 male and 10 female) adult B. pahangi, taken from donor jirds infected IP 8 weeks earlier, are transplanted into the peritoneal cavity of each jird under sodium pentobarbital anesthesia. After an additional week, when the jirds have acceptable levels of microfilaremia, they are randomly allocated to treatment groups of 3 animals each and a nontreated group of 4-6 animals. Microfilaremia is determined on days 0 (just prior to the first dose), 4 and 56 post-treatment. Unless indicated otherwise, compounds are suspended in hydroxyethylcellulose (0.5%) - Tween 80 (0.1%) and administered SC at 100 mg/kg/day for 5 consecutive days. All jirds are killed on day 56 post-treatment to determine the effects of drugs on adults of A. viteae and B. pahangi. Live worms are identified as to species, noted as to sex, and counted. The number of dead and/or encapsulated worms is also recorded. A reduction of ≥80% in microfilaremia or ≥50% in adult worm burden (either species) compared with pre-treatment microfilaremia or non-treated control worm burden, respectively, is considered to be significant. For secondary testing with this dual infection screen, groups of 7 animals each are used. For oral dosing, drugs are dissolved or suspended in hydroxyethylcellulose - Tween 80 and administered by gavage.

B. pahangi and A. viteae = test: Antifilarial activity in jirds, dual infection, summary in words; assay type: in vivo; conditions: both oral and parenteral routes
Description: as §2
For this dual infection screen, male Mongolian jirds weighing 50-60 g are infected SC with 10 (5 male and 5 female) adult A. viteae, transplanted under sodium pentobarbital anesthesia (48 mg/kg) from donor hamsters infected SC 8 weeks earlier. Two weeks later, 20 (10 male and 10 female) adult B. pahangi, taken from donor jirds infected IP 8 weeks earlier, are transplanted into the peritoneal cavity of each jird under sodium pentobarbital anesthesia. After an additional week, when the jirds have acceptable levels of microfilaremia, they are randomly allocated to treatment groups of 3 animals each and a nontreated group of 4-6 animals. Microfilaremia is determined on days 0 (just prior to the first dose), 4 and 56 post-treatment. […] Live worms are identified as to species, noted as to sex, and counted. The number of dead and/or encapsulated worms is also recorded. […]

Acanthocheilonema viteae = test: Antifilarial dual infection screen in jirds: adult A. viteae burden and microfilaremia; assay type: in vivo, in Mongolian jirds; conditions: 25 mg/kg/day × 5 days, SC
Description: as §2, §3

[4] = IM, 6.25 mg/kg/day × 3, peanut oil
[5] = IM, 12.5 mg/kg/day × 3, peanut oil
[6] = IM, 25 mg/kg/day × 3, peanut oil
[7] = IM, 50 mg/kg/day × 1, peanut oil
[8] = IM, 50 mg/kg/day × 2, peanut oil
[9] = IM, 50 mg/kg/day × 3, peanut oil
[10] = PO, 200 mg/kg/day bid × 3, HEC-Tween 80
[11] = SC, 50 mg/kg/day × 3, HEC-Tween 80

## COC(=O)Nc1nc2cc(C(N)c3ccc(F)cc3)ccc2[nH]1 (racemic) [Example 1, Methyl (±)-[5-[Amino(4-Fluorophenyl)Methyl]-1H-Benzimidazol-2-yl]Carbamate]
Brugia pahangi [1]; [4]
  Dogs cured/Treated: 0/4
  Percent reduction Macrofilariae: 38%
  Percent reduction Microfilariae: 50%
Brugia pahangi [1]; [5]
  Dogs cured/Treated: 1/4
  Percent reduction Macrofilariae: 91%
  Percent reduction Microfilariae: 76%
Brugia pahangi [1]; [6]
  Dogs cured/Treated: 4/4
  Percent reduction Macrofilariae: 100%
  Percent reduction Microfilariae: 72%
Brugia pahangi [1]; [7]
  Dogs cured/Treated: 0/4
  Percent reduction Macrofilariae: 85%
  Percent reduction Microfilariae: 55%
Brugia pahangi [1]; [8]
  Dogs cured/Treated: 2/4
  Percent reduction Macrofilariae: 92%
  Percent reduction Microfilariae: 59%
Brugia pahangi [1]; [9]
  Dogs cured/Treated: 4/4
  Percent reduction Macrofilariae: 100%
Brugia pahangi [1]; IM, 50 mg/kg/day × 3, peanut oil, 50 mg/kg/day
  Percent reduction Microfilariae: 100% and 99%
Brugia pahangi [1]; IM, 12.5-50 mg/kg/day for 2 to 3 days
  cure of B. pahangi infections: cured dogs of B. pahangi infections
Brugia pahangi [1]; [10]
  Percent reduction Macrofilariae: 93%
  Percent reduction Microfilariae: 97%
Brugia pahangi [1]; PO, 200 mg/kg/day bid × 3, HEC-Tween 80, necropsied 6 months
  Dogs cured/Treated: 1/3
Brugia pahangi [1]; [11]
  Dogs cured/Treated: 1/4
  Percent reduction Macrofilariae: 76%
  Percent reduction Microfilariae: 78%
Brugia pahangi [1]; administered orally
  cure of B. pahangi infections: also curative when administered orally
[2]
  local muscle irritation: no local muscle irritation
Aqueous solubility
  solubility: 180 µg/mL (≈ 573 µM)
Brugia pahangi [3]; 1.56 mg/kg/day × 5 days
  % Macrofilarial reduction, B. pahangi: 16%
Brugia pahangi [3]; 6.25 mg/kg/day × 5 days
  % Macrofilarial reduction, B. pahangi: 92%
Brugia pahangi [3]; 12.5 mg/kg/day × 5 days
  % Macrofilarial reduction, B. pahangi: 100%
Brugia pahangi [3]; 25 mg/kg/day × 5 days
  % Macrofilarial reduction, B. pahangi: 100%
B. pahangi and A. viteae
  antifilarial activity in jirds: outstanding antifilarial activity
Acanthocheilonema viteae; Day 4
  % Microfilarial reduction, A. viteae, Day 4: 0%
Acanthocheilonema viteae; day 56
  % Macrofilarial reduction, A. viteae: 88%
